# Assay results as given in patent US10603345B2, “Pharmaceutical composition for treating respiratory disease” (Kunming Institute of Botany, The Chinese Academy of Sciences, priority 2015, dated 2020).
# Columns and labels:
# Type in all cases: in vivo
# [1] = tested on: IL-4 in BALF of asthma model mouse; assay: Effect on IL-4 in BALF of asthma model mouse; details: ELISA, ig 7 d, dose/kg: dexamethasone 2.0 mg, Test group 1 50, 2 25, picrinine 5.0, vallesamine 3.0, scholaricine 3.0, 19-epi-scholaricine 3.5 mg, x ± SD
# Procedure: (§1) Animal source: 25˜30 g male ICR mouse, from laboratory animal department of Kunming Medical University, License No. SCXK (Dian) 2011-0004.
# (§2) Method and route: ovalbumin (OVA) was used to induce mouse asthma model, and after intragastrical administration for 7 d at a dose of 20 mL/kg, the animal was sacrificed at the eighth day.
# (§3) Test group 1: picrinine, vallesamine, scholaricine and 19-epischolaricine prepared in Example 1.7 were homogeneously mixed at different ratios by weight (50 mg/kg), Test group 2: the alkaloid composition prepared in Example 1.4 (25 mg/kg). […]
# (§4) Sample preparation: all the samples were prepared by using 0.5% carboxymethylcellulose sodium (0.5% CMC-Na).
# Group and dose: in Test group 1, the ratio of picrinine, vallesamine, scholaricine and 19-epischolaricine by weight was 25:18:15:3, and the other groups and doses thereof were as described in Example 11. […]
# [2] = tested on: white blood cell count and classification in BALF of COPD model mouse; assay: Effect on white blood cell count and classification in BALF of COPD model mouse; details: COPD mouse (LPS plus smoke exposure 30 days), ig 7 d, dose/kg: dexamethasone 1 mg, Test group 1 50, 2 25, 3 10, picrinine 10, vallesamine 6, scholaricine 7, 19-epi-scholaricine 2 mg, x ± SD
# Procedure: as §1
# (§5) Method and route: lipopolysaccharide (LPS) plus smoke exposure was used for 30 days to induce mouse chronic obstructive pulmonary disease model; and after intragastrical administration for 7 d at a dose of 20 mL/kg, the animal was sacrificed at the eighth day.
# (§6) Picrinine group (10 mg/kg), Vallesamine group (6.0 mg/kg), Scholaricine group (7.0 mg/kg), 19-epischolaricine group (2.0 mg/kg).
# as §4
# Group and dose: in Test group 1, the ratio of picrinine, vallesamine, scholaricine and 19-epischolaricine by weight was 48:40:29:10, and the other groups and doses thereof were as described in Example 10.
# Test index: total number of white blood cells and inflammatory cell classification in bronchoalveolar lavage fluid (BALF) were used as indexes, and were determined by full-automatic hemocytometer.
# [3] = tested on: Hyp in homogenate of pulmonary fibrosis model mouse; assay: Effect on Hyp in homogenate of pulmonary fibrosis model mouse; details: bleomycin pulmonary fibrosis mouse, ig 28 d, dose/kg: prednisone acetate 5 mg, Test group 1 50, 2 25, 3 12.5, picrinine 5.0, vallesamine 3.0, scholaricine 3.5, 19-epi-scholaricine 1.0 mg, x ± SD
# Procedure: (§7) Animal source: 30˜35 g male ICR mouse, from laboratory animal department of Kunming Medical University, License No. SCXK (Dian) 2011-0004.
# (§8) Method and route: bleomycin was used to induce mouse pulmonary fibrosis, and after intragastrical administration for 28 d at a dose of 20 mL/kg, the animal was sacrificed at the 29th day.
# (§9) Group and dose: Sham group, Model group, Positive control group, prednisone acetate (5 mg/kg) group, Test group 1: picrinine, vallesamine, scholaricine and 19-epischolaricine prepared in Example 1.7 were mixed at different ratios by weight (50 mg/kg), Test group 2: the alkaloid composition (25 mg/kg) prepared in Example 1.5, Test group 3: the alkaloid composition (12.5 mg/kg) prepared in Example 1.6, Picrinine group (5.0 mg/kg), Vallesamine group (3.0 mg/kg), Scholaricine group (3.5 mg/kg), and 19-epischolaricine group (1.0 mg/kg).
# (§10) Positive control drug: prednisone acetate tablet, Approval number: H33021207, 5 mg/tablet, produced by Zhejiang Xianju Pharmaceutical Co., Ltd., Batch No. 140146.
# (§11) Sample preparation: all the samples were prepared by using 0.5% carboxymethylcellulose sodium (0.5% CMC-Na). […]
# Test index: Hyp in homogenate was used as index, and was determined by enzyme linked immunosorbent assay.
# [4] = tested on: MDA in serum and homogenate of COPD model mouse; assay: Effect on MDA in serum and homogenate of COPD model mouse; details: ig 7 d
# Procedure: as §1, §5, §6, §4
# Group and dose: in Test group 1, the ratio of picrinine, vallesamine, scholaricine and 19-epischolaricine by weight was 9:6:5:1, and the other groups and doses thereof were as described in Example 10.
# Test index: MDA in serum and homogenate was used as index, and was determined by thibabituric acid method.
# [5] = tested on: SOD in serum and BALF of asthma model mouse; assay: Effect on SOD in serum and BALF of asthma model mouse; details: ig 7 d, dose/kg: dexamethasone 2.0 mg, Test group 1 50, 2 25, picrinine 5.0, vallesamine 3.0, scholaricine 3.0, 19-epi-scholaricine 3.5 mg, x ± SD
# Procedure: as §1, §2, §3, §4
# Group and dose: in Test group 1, the ratio of picrinine, vallesamine, scholaricine and 19-epischolaricine by weight was 12:10:9:2, and the other groups and doses thereof were as described in Example 11.
# Test index: SOD in serum and BALF was used as index, and was determined by xanthine oxidase method.
# [6] = tested on: MDA in serum and BALF of asthma model mouse; assay: Effect on MDA in serum and BALF of asthma model mouse; details: ig 7 d, dose/kg: dexamethasone 2.0 mg, Test group 1 50, 2 25, picrinine 5.0, vallesamine 3.0, scholaricine 3.0, 19-epi-scholaricine 3.5 mg, x ± SD
# Procedure: as §1, §2, §3, §4
# Group and dose: in Test group 1, the ratio of picrinine, vallesamine, scholaricine and 19-epischolaricine by weight was 8:6:5:1, and the other groups and doses thereof were as described in Example 11.
# Test index: MDA in serum and BALF was used as index, and was determined by thiobarbituric acid method.
# [7] = tested on: SOD in serum and homogenate of COPD model mouse; assay: Effect on SOD in serum and homogenate of COPD model mouse; details: ig 7 d, dose/kg: dexamethasone 1 mg, Test group 1 50, 2 25, 3 10, picrinine 10, vallesamine 6, scholaricine 7, 19-epi-scholaricine 2 mg, x ± SD
# Procedure: as §1, §5, §6, §4
# Group and dose: in Test group 1, the ratio of picrinine, vallesamine, scholaricine and 19-epischolaricine by weight was 16:11:12:3, and the other groups and doses thereof were as described in Example 10.
# Test index: SOD in serum and lung homogenate was used as index, and was determined by xanthine oxidase method.
# [8] = tested on: CRP in serum in COPD model mouse; assay: Effect on CRP in serum in COPD model mouse; details: ELISA, ig 7 d, dose/kg: dexamethasone 1 mg, Test group 1 50, 2 25, 3 10, picrinine 10, vallesamine 6, scholaricine 7, 19-epi-scholaricine 2 mg, x ± SD
# Procedure: as §1, §5, §6, §4
# Group and dose: in Test group 1, the ratio of picrinine, vallesamine, scholaricine and 19-epischolaricine by weight was 25:19:20:4, and the other groups and doses thereof were as described in Example 10.
# Test index: CRP in serum was used as index, and was determined by enzyme linked immunosorbent assay.
# [9] = tested on: LDH in serum of pulmonary fibrosis model mouse; assay: Effect on LDH in serum of pulmonary fibrosis model mouse; details: bleomycin pulmonary fibrosis mouse, ig 28 d, dose/kg: prednisone acetate 5 mg, Test group 1 50, 2 25, 3 12.5, picrinine 5.0, vallesamine 3.0, scholaricine 3.5, 19-epi-scholaricine 1.0 mg, x ± SD
# Procedure: as §7, §8, §9, §10, §11
# Test index: LDH in serum was used as index, and was determined by 2, 4-dinitrophenylhydrazine method.
smiles,measurement,setting,value
COC(=O)C1=C2Nc3c(O)cccc3[C@@]23CCN2C[C@@H]([C@@H](C)O)[C@@H]1C[C@H]23 [scholaricine],IL-4,[1],11.21 ± 3.62 pg/mL
same,Leukocyte number,[2],2.5 ± 3.5 ×10^5/mL
same,Neutrophil number,[2],0.66 ± 0.81 ×10^5/mL
same,Hyp,[3],6.5 ± 1.5 μg/g prot
same,content of MDA (serum or homogenate not given),"[4]; vallesamine 6, scholaricine 7, 19-epi-scholaricine 2 mg/kg",significantly decrease
same,MDA Homogenate,"[4]; lung homogenate, dose/kg: dexamethasone 1 mg, Test group 1 50, 2 25, 3 10, picrinine 10, vallesamine 6, scholaricine 7, 19-epi-scholaricine 2 mg, x ± SD",6.09 ± 1.25 nmol/mL
same,MDA Serum,"[4]; serum, dose/kg: dexamethasone 1 mg, Test group 1 50, 2 25, 3 10, picrinine 10, vallesamine 6, scholaricine 7, 19-epi-scholaricine 2 mg, x ± SD",12.21 ± 3.38 nmol/mL
same,SOD lavage fluid,[5]; BALF,76.78 ± 8.01 U/mL
same,SOD Serum,[5]; serum,73.36 ± 8.44 U/mL
same,MDA lavage fluid,[6]; BALF,2.43 ± 1.05 nmol/mL
same,MDA Serum,[6]; serum,9.19 ± 2.77 nmol/mL
same,SOD homogenate,[7]; lung homogenate,58.43 ± 7.04 U/mL
same,SOD Serum,[7]; serum,93.61 ± 12.37 U/mL
same,CRP,[8],24.4 ± 2.4 pg/mL
same,LDH,[9],12.5 ± 3.2 U/g prot
